Source: the supplement of paper PMC13207355

How the values were obtained:
Settings in all cases: exposure time: 72 h
[1] = tested on: FT3469 (normal neural stem cell line); test: surviving fraction (nuclei count normalised to DMSO); higher = more cells surviving (less toxic)
[2] = tested on: E57 (patient-derived glioblastoma stem cells of mesenchymal subtype); test: as above
[3] = tested on: E31 (patient-derived glioblastoma stem cells of proneural subtype); test: as above
[4] = tested on: E34 (patient-derived glioblastoma stem cells of proneural subtype); test: as above
[5] = tested on: E28 (patient-derived glioblastoma stem cells of classical subtype); test: as above
[6] = tested on: E21 (patient-derived glioblastoma stem cells of mesenchymal subtype); test: as above
[7] = tested on: E13 (patient-derived glioblastoma stem cells of classical subtype); test: as above
[8] = tested on: FT3469; test: phenotypic distance (Euclidean, principal components) from DMSO controls (arbitrary units); higher = stronger morphological change
[9] = tested on: E57; test: as above
[10] = tested on: E31; test: as above
[11] = tested on: E34; test: as above
[12] = tested on: E28; test: as above
[13] = tested on: E21; test: as above
[14] = tested on: E13; test: as above
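For phenotypic distance (Euclidean, principal components) from DMSO controls in this document: cell Painting imaging in 384-well plates, CellProfiler features reduced to at least 20 principal components, Euclidean distance versus same-plate DMSO vehicle wells (0.1% v/v), median over six images per well.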
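For surviving fraction (nuclei count normalised to DMSO) in this document: nuclei counted by high-content imaging of Hoechst-stained cells in laminin-coated 384-well plates, relative to 0.1% DMSO vehicle wells, with staurosporine as cell-death control.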

COc1cc(N)c(Cl)cc1C(=O)NC1CCN(CCCOc2ccc(F)cc2)CC1OC (stereo unspecified) [Cisapride]
Settings	phenotypic distance	surviving fraction
[1], 4.1 nM	–	0.931
[1], 12.3 nM	–	1.1
[1], 37 nM	–	0.992
[1], 111.1 nM	–	1.06
[1], 333.3 nM	–	0.891
[1], 1000 nM	–	1.2
[1], 3000 nM	–	0.907
[2], 4.1 nM	–	0.957
[2], 12.3 nM	–	0.903
[2], 37 nM	–	1.05
[2], 111.1 nM	–	1.07
[2], 333.3 nM	–	0.967
[2], 1000 nM	–	1.04
[2], 3000 nM	–	0.918
[3], 4.1 nM	–	1.04
[3], 12.3 nM	–	1.01
[3], 37 nM	–	0.895
[3], 111.1 nM	–	1
[3], 333.3 nM	–	1.01
[3], 1000 nM	–	0.972
[3], 3000 nM	–	0.67
[4], 4.1 nM	–	1.06
[4], 12.3 nM	–	1.13
[4], 37 nM	–	0.945
[4], 111.1 nM	–	0.906
[4], 333.3 nM	–	1.02
[4], 1000 nM	–	0.971
[4], 3000 nM	–	1.06
[5], 4.1 nM	–	1.05
[5], 12.3 nM	–	1.04
[5], 37 nM	–	1.14
[5], 111.1 nM	–	0.921
[5], 333.3 nM	–	1.09
[5], 1000 nM	–	0.963
[5], 3000 nM	–	0.844
[6], 4.1 nM	–	1.04
[6], 12.3 nM	–	1.03
[6], 37 nM	–	0.956
[6], 111.1 nM	–	1.08
[6], 333.3 nM	–	0.888
[6], 1000 nM	–	0.863
[6], 3000 nM	–	0.846
[7], 4.1 nM	–	1.06
[7], 12.3 nM	–	0.908
[7], 37 nM	–	0.927
[7], 111.1 nM	–	1
[7], 333.3 nM	–	0.996
[7], 1000 nM	–	0.958
[7], 3000 nM	–	0.907
[8], 4.1 nM	1.16	–
[8], 12.3 nM	0.775	–
[8], 37 nM	1.12	–
[8], 111.1 nM	2.83	–
[8], 333.3 nM	0.576	–
[8], 1000 nM	1.05	–
[8], 3000 nM	0.797	–
[9], 4.1 nM	0.385	–
[9], 12.3 nM	0.606	–
[9], 37 nM	0.667	–
[9], 111.1 nM	0.47	–
[9], 333.3 nM	0.668	–
[9], 1000 nM	0.946	–
[9], 3000 nM	0.645	–
[10], 4.1 nM	0.443	–
[10], 12.3 nM	0.553	–
[10], 37 nM	0.533	–
[10], 111.1 nM	0.657	–
[10], 333.3 nM	0.557	–
[10], 1000 nM	0.668	–
[10], 3000 nM	0.804	–
[11], 4.1 nM	0.74	–
[11], 12.3 nM	0.611	–
[11], 37 nM	0.666	–
[11], 111.1 nM	0.904	–
[11], 333.3 nM	0.986	–
[11], 1000 nM	0.415	–
[11], 3000 nM	0.914	–
[12], 4.1 nM	0.867	–
[12], 12.3 nM	0.592	–
[12], 37 nM	0.923	–
[12], 111.1 nM	0.547	–
[12], 333.3 nM	1.1	–
[12], 1000 nM	0.901	–
[12], 3000 nM	1.01	–
[13], 4.1 nM	0.524	–
[13], 12.3 nM	0.638	–
[13], 37 nM	0.752	–
[13], 111.1 nM	0.754	–
[13], 333.3 nM	0.818	–
[13], 1000 nM	0.872	–
[13], 3000 nM	1.14	–
[14], 4.1 nM	0.873	–
[14], 12.3 nM	0.288	–
[14], 37 nM	0.382	–
[14], 111.1 nM	0.383	–
[14], 333.3 nM	0.399	–
[14], 1000 nM	0.304	–
[14], 3000 nM	0.549	–

Nc1nc(Cl)nc2c1ncn2[C@@H]1O[C@H](CO)[C@@H](O)[C@@H]1F [Clofarabine]
Settings	phenotypic distance	surviving fraction
[1], 4.1 nM	–	0.827
[1], 12.3 nM	–	0.915
[1], 37 nM	–	0.875
[1], 111.1 nM	–	0.79
[1], 333.3 nM	–	0.702
[1], 1000 nM	–	0.497
[1], 3000 nM	–	0.428
[2], 4.1 nM	–	0.939
[2], 12.3 nM	–	0.847
[2], 37 nM	–	0.741
[2], 111.1 nM	–	0.402
[2], 333.3 nM	–	0.186
[2], 1000 nM	–	0.168
[2], 3000 nM	–	0.165
[3], 4.1 nM	–	0.754
[3], 12.3 nM	–	0.892
[3], 37 nM	–	0.64
[3], 111.1 nM	–	0.205
[3], 333.3 nM	–	0.142
[3], 1000 nM	–	0.236
[3], 3000 nM	–	0.206
[4], 4.1 nM	–	0.858
[4], 12.3 nM	–	1.04
[4], 37 nM	–	0.894
[4], 111.1 nM	–	0.777
[4], 333.3 nM	–	0.558
[4], 1000 nM	–	0.495
[4], 3000 nM	–	0.541
[5], 4.1 nM	–	0.864
[5], 12.3 nM	–	0.907
[5], 37 nM	–	0.515
[5], 111.1 nM	–	0.559
[5], 333.3 nM	–	0.341
[5], 1000 nM	–	0.366
[5], 3000 nM	–	0.3
[6], 4.1 nM	–	0.962
[6], 12.3 nM	–	0.885
[6], 37 nM	–	0.825
[6], 111.1 nM	–	0.771
[6], 333.3 nM	–	0.343
[6], 1000 nM	–	0.118
[6], 3000 nM	–	0.116
[7], 4.1 nM	–	0.852
[7], 12.3 nM	–	0.979
[7], 37 nM	–	0.86
[7], 111.1 nM	–	0.941
[7], 333.3 nM	–	0.913
[7], 1000 nM	–	0.789
[7], 3000 nM	–	0.318
[8], 4.1 nM	0.724	–
[8], 12.3 nM	0.807	–
[8], 37 nM	0.917	–
[8], 111.1 nM	1.95	–
[8], 333.3 nM	2.04	–
[8], 1000 nM	1.6	–
[8], 3000 nM	2.19	–
[9], 4.1 nM	0.635	–
[9], 12.3 nM	1.15	–
[9], 37 nM	2.09	–
[9], 111.1 nM	5.48	–
[9], 333.3 nM	5.92	–
[9], 1000 nM	6.82	–
[9], 3000 nM	6.53	–
[10], 4.1 nM	1.08	–
[10], 12.3 nM	1.33	–
[10], 37 nM	1.67	–
[10], 111.1 nM	2.85	–
[10], 333.3 nM	3.28	–
[10], 1000 nM	2.52	–
[10], 3000 nM	2.66	–
[11], 4.1 nM	0.795	–
[11], 12.3 nM	0.848	–
[11], 37 nM	0.943	–
[11], 111.1 nM	2.17	–
[11], 333.3 nM	3.94	–
[11], 1000 nM	3.25	–
[11], 3000 nM	3.42	–
[12], 4.1 nM	1.24	–
[12], 12.3 nM	1.42	–
[12], 37 nM	1.73	–
[12], 111.1 nM	2.31	–
[12], 333.3 nM	3.06	–
[12], 1000 nM	3.17	–
[12], 3000 nM	3.21	–
[13], 4.1 nM	0.844	–
[13], 12.3 nM	1.11	–
[13], 37 nM	1.36	–
[13], 111.1 nM	2.15	–
[13], 333.3 nM	4.37	–
[13], 1000 nM	4.92	–
[13], 3000 nM	4.35	–
[14], 4.1 nM	0.623	–
[14], 12.3 nM	2.78	–
[14], 37 nM	0.684	–
[14], 111.1 nM	0.632	–
[14], 333.3 nM	0.616	–
[14], 1000 nM	1.66	–
[14], 3000 nM	5.91	–
